{"source": "paper PMC4511007", "about": "(PLoS ONE, 2015)", "key": {"VRV-PLA2-VIII": {"target": "VRV-PLA2-VIII (Daboia russelii, UniProt P59071)", "sequence (P59071 whole entry, looked up)": "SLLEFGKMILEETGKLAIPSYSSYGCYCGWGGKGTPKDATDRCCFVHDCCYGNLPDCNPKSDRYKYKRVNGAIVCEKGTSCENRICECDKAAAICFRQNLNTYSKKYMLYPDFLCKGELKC", "test": "biochemical", "set-up": "species or system Vipera russelli"}, "RV venom PLA2": {"system": "RV venom PLA2", "test": "Indirect haemolytic activity (RV venom PLA2 inhibition)", "assay_type": "biochemical, Vipera russelli", "details": "1 μg RV venom pre-incubated with compound 10 min at 37°C, NS: Not Significant"}}, "note": "Read-outs that look alike come from different tables or passages of the source."}
{"smiles": "CC(=O)c1c(C)nc2c(-c3ccc(Cl)c(C(F)(F)F)c3)cccn12", "note": "[3a, 1-(8-(4-chloro-3-(trifluoromethyl)phenyl)-2-methylimidazo[1,2-a]pyridin-3-yl)ethanone]", "values": [{"measurement": "IC50", "setting": "VRV-PLA2-VIII", "value": 155, "unit": "µM"}, {"measurement": "melting point", "value": "141 to 143", "unit": "°C"}, {"measurement": "IC50", "setting": "RV venom PLA2", "value": 110, "unit": "µM"}]}
{"smiles": "CC(=O)c1c(C)nc2c(-c3ccc(OCc4ccccc4)c(F)c3)cccn12", "note": "[3b, 1-(8-(4-(benzyloxy)-3-fluorophenyl)-2-methylimidazo[1,2-a]pyridin-3-yl)ethanone]", "values": [{"measurement": "IC50", "setting": "VRV-PLA2-VIII", "value": 140, "unit": "µM"}, {"measurement": "melting point", "value": "154 to 156", "unit": "°C"}, {"measurement": "IC50", "setting": "RV venom PLA2", "value": "> 500", "unit": "µM"}]}
{"smiles": "CC(=O)c1c(C)nc2c(-c3ccccc3)cccn12", "note": "[3c, 1-(2-methyl-8-phenylimidazo[1,2-a]pyridin-3-yl)ethanone]", "values": [{"measurement": "melting point", "value": "160 to 162", "unit": "°C"}, {"measurement": "IC50", "setting": "RV venom PLA2", "value": 194, "unit": "µM"}]}
{"smiles": "CC(=O)c1c(C)nc2c(-c3cccc(Cl)c3)cccn12", "note": "[3d, 1-(8-(3-chlorophenyl)-2-methylimidazo[1,2-a]pyridin-3-yl)ethanone]", "values": [{"measurement": "IC50", "setting": "VRV-PLA2-VIII", "value": 89.1, "unit": "µM"}, {"measurement": "melting point", "value": "114 to 116", "unit": "°C"}, {"measurement": "IC50", "setting": "RV venom PLA2", "value": 59.1, "unit": "µM"}]}
{"smiles": "COc1cccc(-c2cccn3c(C(C)=O)c(C)nc23)c1", "note": "[3e, 1-(8-(3-methoxyphenyl)-2-methylimidazo[1,2-a]pyridin-3-yl)ethanone]", "values": [{"measurement": "IC50", "setting": "VRV-PLA2-VIII", "value": 65.3, "unit": "µM"}, {"measurement": "melting point", "value": "116 to 119", "unit": "°C"}, {"measurement": "IC50", "setting": "RV venom PLA2", "value": 46.4, "unit": "µM"}]}
{"smiles": "CC(=O)c1c(C)nc2c(-c3cccc4ccccc34)cccn12", "note": "[3f, 1-(2-methyl-8-(naphthalen-1-yl)imidazo[1,2-a]pyridin-3-yl)ethanone]", "values": [{"measurement": "IC50", "setting": "VRV-PLA2-VIII", "value": 23.1, "unit": "µM"}, {"measurement": "melting point", "value": "179 to 182", "unit": "°C"}, {"measurement": "IC50", "setting": "RV venom PLA2", "value": 14.3, "unit": "µM"}]}
{"smiles": "CC(=O)c1c(C)nc2c(-c3ccc(Cl)cc3)cccn12", "note": "[3g, 1-(8-(4-chlorophenyl)-2-methylimidazo[1,2-a]pyridin-3-yl)ethanone]", "values": [{"measurement": "IC50", "setting": "VRV-PLA2-VIII", "value": 195, "unit": "µM"}, {"measurement": "melting point", "value": "111 to 114", "unit": "°C"}, {"measurement": "IC50", "setting": "RV venom PLA2", "value": 219, "unit": "µM"}]}
{"smiles": "CCC(CCc1cccn2c(C(C)=O)c(C)nc12)C(=O)NC1CCCC1", "note": "(centres unmarked) [3h, 4-(3-acetyl-2-methylimidazo[1,2-a]pyridin-8-yl)-N-cyclopentyl-2-ethylbutanamide]", "values": [{"measurement": "IC50", "setting": "VRV-PLA2-VIII", "value": 114, "unit": "µM"}, {"measurement": "melting point", "value": "117 to 119", "unit": "°C"}, {"measurement": "IC50", "setting": "RV venom PLA2", "value": 105, "unit": "µM"}]}
{"smiles": "COc1cccc(-c2cccn3c(C(C)=O)c(C)nc23)c1F", "note": "[3i, 1-(8-(2-fluoro-3-methoxyphenyl)-2-methylimidazo[1,2-a]pyridin-3-yl)ethanone]", "values": [{"measurement": "IC50", "setting": "VRV-PLA2-VIII", "value": 135, "unit": "µM"}, {"measurement": "melting point", "value": "190 to 192", "unit": "°C"}, {"measurement": "IC50", "setting": "RV venom PLA2", "value": 123, "unit": "µM"}]}
{"smiles": "CC(=O)c1c(C)nc2c(-c3ccccc3C)cccn12", "note": "[3j, 1-(2-methyl-8-(o-tolyl)imidazo[1,2-a]pyridin-3-yl)ethanone]", "values": [{"measurement": "IC50", "setting": "VRV-PLA2-VIII", "value": 189, "unit": "µM"}, {"measurement": "melting point", "value": "157 to 159", "unit": "°C"}, {"measurement": "IC50", "setting": "RV venom PLA2", "value": 166, "unit": "µM"}]}
{"smiles": "CC(=O)c1c(C)nc2c(-c3ccc(C(F)(F)F)cc3)cccn12", "note": "[3k, 1-(2-methyl-8-(4-(trifluoromethyl)phenyl)imidazo[1,2-a]pyridin-3-yl)ethanone]", "values": [{"measurement": "IC50", "setting": "VRV-PLA2-VIII; read-out: IC50 (μM) VRV-PLA2-VIII", "value": "> 100", "unit": "µM"}, {"measurement": "melting point", "value": "121 to 123", "unit": "°C"}, {"measurement": "IC50", "setting": "RV venom PLA2", "value": "> 500", "unit": "µM"}]}
{"smiles": "CCc1ccc(-c2cccn3c(C(C)=O)c(C)nc23)cc1", "note": "[3l, 1-(8-(4-ethylphenyl)-2-methylimidazo[1,2-a]pyridin-3-yl)ethanone]", "values": [{"measurement": "IC50", "setting": "VRV-PLA2-VIII", "value": 43.2, "unit": "µM"}, {"measurement": "melting point", "value": "169 to 172", "unit": "°C"}, {"measurement": "IC50", "setting": "RV venom PLA2", "value": "> 500", "unit": "µM"}]}
